Measured values as given in ChEMBL document CHEMBL5465560, “Selectivity Literature for EUbOPEN Chemogenomic Library” (2024).

Columns and labels:
[1] = target: T1, Serine/threonine-protein kinase Nek9 (Homo sapiens) (UniProt Q8TD19); experiment: Selectivity interaction (Kinase panel (KiNativ target engagement assay in Jurkat cells)) EUB0001635a NEK9; format: cell-based; details: at 1 µM
T1 sequence (whole entry): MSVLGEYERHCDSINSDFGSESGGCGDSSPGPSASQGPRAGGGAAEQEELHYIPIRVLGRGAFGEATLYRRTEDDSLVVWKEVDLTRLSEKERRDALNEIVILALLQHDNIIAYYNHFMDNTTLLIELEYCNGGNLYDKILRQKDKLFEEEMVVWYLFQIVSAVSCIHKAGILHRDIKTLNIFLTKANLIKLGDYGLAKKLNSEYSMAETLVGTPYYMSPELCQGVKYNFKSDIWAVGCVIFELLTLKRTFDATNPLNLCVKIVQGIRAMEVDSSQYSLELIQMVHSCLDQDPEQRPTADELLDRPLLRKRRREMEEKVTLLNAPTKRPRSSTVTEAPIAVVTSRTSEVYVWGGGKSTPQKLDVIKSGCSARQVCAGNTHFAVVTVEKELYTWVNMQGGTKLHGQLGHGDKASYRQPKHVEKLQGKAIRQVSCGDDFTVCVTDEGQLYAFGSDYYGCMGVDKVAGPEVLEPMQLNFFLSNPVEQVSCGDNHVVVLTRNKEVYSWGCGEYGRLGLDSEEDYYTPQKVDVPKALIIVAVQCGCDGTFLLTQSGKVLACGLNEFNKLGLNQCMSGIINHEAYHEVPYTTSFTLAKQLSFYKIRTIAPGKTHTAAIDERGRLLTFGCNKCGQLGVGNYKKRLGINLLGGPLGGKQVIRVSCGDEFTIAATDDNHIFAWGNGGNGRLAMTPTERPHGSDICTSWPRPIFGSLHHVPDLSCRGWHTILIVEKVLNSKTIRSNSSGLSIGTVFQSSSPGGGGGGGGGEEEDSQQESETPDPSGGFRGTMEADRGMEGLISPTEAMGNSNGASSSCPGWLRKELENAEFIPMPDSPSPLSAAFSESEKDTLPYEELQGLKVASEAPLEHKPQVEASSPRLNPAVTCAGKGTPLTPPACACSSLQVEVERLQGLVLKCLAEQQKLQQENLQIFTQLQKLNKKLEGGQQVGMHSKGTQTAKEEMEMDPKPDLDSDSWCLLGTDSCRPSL

[2] = target: 5-hydroxytryptamine receptor 2A (Homo sapiens, UniProt P28223); experiment: Selectivity interaction (Serotonin 5HT2A Calcium flux assay, agonist and antagonist mode ) EUB0000877a HTR2A
[3] = target: T2, Serine/threonine-protein kinase LATS2 (Homo sapiens) (UniProt Q9NRM7); details: at 10 µM
T2 sequence (whole entry): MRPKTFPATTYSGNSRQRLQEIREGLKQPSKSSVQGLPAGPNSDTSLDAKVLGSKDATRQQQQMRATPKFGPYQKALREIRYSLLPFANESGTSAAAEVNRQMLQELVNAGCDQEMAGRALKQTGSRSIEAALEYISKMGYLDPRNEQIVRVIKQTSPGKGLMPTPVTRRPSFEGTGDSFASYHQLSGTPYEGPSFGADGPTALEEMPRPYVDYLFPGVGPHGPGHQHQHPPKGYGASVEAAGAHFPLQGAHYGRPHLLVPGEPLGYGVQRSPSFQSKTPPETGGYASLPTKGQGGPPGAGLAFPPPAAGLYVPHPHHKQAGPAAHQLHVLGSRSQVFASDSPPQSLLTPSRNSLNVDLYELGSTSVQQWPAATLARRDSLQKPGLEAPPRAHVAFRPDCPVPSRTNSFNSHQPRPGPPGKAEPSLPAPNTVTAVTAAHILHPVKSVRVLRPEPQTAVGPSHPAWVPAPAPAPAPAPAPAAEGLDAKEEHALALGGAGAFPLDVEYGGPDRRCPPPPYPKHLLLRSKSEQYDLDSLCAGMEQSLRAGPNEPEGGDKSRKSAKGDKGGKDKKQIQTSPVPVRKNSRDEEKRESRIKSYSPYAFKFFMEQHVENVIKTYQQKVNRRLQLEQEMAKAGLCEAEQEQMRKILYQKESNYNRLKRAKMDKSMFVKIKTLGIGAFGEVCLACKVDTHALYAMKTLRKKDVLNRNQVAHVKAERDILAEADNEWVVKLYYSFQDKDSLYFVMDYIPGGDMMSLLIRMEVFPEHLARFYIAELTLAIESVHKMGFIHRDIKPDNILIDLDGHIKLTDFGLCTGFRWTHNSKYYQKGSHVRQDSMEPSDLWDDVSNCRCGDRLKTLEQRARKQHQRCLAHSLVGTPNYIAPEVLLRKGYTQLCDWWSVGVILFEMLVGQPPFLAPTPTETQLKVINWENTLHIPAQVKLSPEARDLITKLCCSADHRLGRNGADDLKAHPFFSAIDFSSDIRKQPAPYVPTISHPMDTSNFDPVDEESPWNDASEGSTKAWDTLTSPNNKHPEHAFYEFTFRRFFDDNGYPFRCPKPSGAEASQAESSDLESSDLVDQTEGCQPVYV

[4] = target: Histone-lysine N-methyltransferase ASH1L (Homo sapiens) (UniProt Q9NR48); experiment: Selectivity interaction (Bromodomain panel (DSF asssay)) EUB0000270b ASH1L
[5] = target: Proto-oncogene tyrosine-protein kinase ROS (Homo sapiens) (UniProt P08922); experiment: Selectivity interaction (Kinase panel (Invitrogen)) EUB0000639a ROS1; details: at 200 nM
[6] = target: Fibroblast growth factor receptor 3 (Homo sapiens, UniProt P22607); experiment: Selectivity interaction (Kinase screening (Nanosyn)) EUB0000604a FGFR3
[7] = target: Serine/threonine-protein kinase PAK 6 (Homo sapiens) (UniProt Q9NQU5); details: at 10 µM
[8] = target: Tyrosine-protein kinase BTK (Homo sapiens, UniProt Q06187); experiment: Selectivity interaction (Upstate Kinase Profiler service (Millipore)) EUB0000056c BTK; details: at 1 µM
[9] = target: Casein kinase I isoform gamma-3 (Homo sapiens) (UniProt Q9Y6M4); experiment: Selectivity interaction (KinomeScan (DiscoverX)) EUB0000607a CSNK1G3; details: at 10 µM
[10] = target: PAS domain-containing serine/threonine-protein kinase (Homo sapiens) (UniProt Q96RG2); experiment: Selectivity interaction (SelectScreen profiling (Invitrogen)) EUB0000607a PASK; details: at 2 µM
Chain of PAS domain-containing serine/threonine-protein kinase (Homo sapiens) (Q96RG2 whole entry, the tested form may be a part): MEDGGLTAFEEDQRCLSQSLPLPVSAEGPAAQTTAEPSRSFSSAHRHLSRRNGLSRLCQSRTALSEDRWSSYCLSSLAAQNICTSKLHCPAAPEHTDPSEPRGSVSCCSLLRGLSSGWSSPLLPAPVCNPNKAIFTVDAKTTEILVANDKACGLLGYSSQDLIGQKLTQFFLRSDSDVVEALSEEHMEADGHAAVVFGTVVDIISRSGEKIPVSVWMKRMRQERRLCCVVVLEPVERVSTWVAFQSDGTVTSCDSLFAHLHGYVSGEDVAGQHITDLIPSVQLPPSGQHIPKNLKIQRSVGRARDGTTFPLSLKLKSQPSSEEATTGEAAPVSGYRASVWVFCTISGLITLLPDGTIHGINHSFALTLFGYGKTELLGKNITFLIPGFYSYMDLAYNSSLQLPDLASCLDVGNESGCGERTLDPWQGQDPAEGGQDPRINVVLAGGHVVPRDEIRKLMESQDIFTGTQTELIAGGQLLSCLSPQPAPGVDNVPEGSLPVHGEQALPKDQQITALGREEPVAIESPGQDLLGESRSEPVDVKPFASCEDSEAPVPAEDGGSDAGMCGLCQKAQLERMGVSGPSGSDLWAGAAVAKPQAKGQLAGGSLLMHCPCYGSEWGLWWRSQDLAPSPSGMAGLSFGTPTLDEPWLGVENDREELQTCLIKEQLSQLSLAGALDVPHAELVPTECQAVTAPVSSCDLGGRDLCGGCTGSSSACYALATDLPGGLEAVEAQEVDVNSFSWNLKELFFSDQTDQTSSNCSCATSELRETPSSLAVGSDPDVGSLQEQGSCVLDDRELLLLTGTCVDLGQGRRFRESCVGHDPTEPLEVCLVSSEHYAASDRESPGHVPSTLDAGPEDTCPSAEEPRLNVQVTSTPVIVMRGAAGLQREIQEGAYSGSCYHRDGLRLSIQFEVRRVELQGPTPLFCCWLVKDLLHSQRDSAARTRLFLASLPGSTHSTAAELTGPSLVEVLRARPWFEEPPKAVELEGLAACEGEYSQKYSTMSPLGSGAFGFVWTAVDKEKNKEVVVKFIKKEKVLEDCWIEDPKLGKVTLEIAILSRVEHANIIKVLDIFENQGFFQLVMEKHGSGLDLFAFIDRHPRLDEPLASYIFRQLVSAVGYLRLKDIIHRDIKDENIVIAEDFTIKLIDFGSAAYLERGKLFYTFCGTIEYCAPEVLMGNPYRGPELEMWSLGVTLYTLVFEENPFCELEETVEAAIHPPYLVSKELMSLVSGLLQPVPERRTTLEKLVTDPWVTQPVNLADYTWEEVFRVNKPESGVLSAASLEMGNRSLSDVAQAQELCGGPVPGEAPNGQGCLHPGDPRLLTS

Chain of Serine/threonine-protein kinase PAK 6 (Homo sapiens) (Q9NQU5 whole entry, looked up): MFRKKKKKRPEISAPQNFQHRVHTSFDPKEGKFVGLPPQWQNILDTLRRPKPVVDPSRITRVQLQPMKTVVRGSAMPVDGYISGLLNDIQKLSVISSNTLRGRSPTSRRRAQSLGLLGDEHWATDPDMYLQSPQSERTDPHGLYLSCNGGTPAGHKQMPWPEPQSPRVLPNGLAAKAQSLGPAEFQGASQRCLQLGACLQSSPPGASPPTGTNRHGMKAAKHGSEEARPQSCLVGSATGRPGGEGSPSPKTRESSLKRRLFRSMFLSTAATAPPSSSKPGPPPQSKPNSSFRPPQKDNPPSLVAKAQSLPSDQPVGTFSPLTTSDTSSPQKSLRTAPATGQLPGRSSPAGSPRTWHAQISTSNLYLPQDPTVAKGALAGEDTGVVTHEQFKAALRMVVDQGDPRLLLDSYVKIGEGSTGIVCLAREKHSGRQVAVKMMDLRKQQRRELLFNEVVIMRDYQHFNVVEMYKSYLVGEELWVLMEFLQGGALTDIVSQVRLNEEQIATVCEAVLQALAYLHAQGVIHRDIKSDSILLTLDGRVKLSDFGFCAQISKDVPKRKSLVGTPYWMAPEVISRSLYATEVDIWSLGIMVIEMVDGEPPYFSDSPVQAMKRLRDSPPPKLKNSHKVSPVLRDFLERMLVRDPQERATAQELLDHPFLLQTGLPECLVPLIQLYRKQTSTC
Chain of Tyrosine-protein kinase BTK (Q06187 whole entry, canonical isoform): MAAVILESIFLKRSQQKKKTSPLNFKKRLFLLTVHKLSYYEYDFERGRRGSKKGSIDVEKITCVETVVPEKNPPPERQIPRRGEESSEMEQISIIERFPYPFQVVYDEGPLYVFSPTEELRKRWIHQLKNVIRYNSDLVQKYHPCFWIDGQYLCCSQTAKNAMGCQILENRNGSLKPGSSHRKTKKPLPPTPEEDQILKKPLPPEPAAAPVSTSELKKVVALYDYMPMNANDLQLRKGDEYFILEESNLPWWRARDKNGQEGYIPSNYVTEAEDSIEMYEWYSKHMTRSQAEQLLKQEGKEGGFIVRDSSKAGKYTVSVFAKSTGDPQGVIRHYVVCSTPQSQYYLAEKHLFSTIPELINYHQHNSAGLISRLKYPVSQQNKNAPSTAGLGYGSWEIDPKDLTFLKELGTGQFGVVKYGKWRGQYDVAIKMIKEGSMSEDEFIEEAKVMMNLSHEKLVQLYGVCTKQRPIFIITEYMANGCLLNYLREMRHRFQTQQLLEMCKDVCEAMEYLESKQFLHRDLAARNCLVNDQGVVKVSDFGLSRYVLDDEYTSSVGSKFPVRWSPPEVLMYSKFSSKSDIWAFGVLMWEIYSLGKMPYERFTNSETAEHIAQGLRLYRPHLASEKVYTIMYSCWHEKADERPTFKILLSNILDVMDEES
Chain of Proto-oncogene tyrosine-protein kinase ROS (Homo sapiens) (P08922 whole entry): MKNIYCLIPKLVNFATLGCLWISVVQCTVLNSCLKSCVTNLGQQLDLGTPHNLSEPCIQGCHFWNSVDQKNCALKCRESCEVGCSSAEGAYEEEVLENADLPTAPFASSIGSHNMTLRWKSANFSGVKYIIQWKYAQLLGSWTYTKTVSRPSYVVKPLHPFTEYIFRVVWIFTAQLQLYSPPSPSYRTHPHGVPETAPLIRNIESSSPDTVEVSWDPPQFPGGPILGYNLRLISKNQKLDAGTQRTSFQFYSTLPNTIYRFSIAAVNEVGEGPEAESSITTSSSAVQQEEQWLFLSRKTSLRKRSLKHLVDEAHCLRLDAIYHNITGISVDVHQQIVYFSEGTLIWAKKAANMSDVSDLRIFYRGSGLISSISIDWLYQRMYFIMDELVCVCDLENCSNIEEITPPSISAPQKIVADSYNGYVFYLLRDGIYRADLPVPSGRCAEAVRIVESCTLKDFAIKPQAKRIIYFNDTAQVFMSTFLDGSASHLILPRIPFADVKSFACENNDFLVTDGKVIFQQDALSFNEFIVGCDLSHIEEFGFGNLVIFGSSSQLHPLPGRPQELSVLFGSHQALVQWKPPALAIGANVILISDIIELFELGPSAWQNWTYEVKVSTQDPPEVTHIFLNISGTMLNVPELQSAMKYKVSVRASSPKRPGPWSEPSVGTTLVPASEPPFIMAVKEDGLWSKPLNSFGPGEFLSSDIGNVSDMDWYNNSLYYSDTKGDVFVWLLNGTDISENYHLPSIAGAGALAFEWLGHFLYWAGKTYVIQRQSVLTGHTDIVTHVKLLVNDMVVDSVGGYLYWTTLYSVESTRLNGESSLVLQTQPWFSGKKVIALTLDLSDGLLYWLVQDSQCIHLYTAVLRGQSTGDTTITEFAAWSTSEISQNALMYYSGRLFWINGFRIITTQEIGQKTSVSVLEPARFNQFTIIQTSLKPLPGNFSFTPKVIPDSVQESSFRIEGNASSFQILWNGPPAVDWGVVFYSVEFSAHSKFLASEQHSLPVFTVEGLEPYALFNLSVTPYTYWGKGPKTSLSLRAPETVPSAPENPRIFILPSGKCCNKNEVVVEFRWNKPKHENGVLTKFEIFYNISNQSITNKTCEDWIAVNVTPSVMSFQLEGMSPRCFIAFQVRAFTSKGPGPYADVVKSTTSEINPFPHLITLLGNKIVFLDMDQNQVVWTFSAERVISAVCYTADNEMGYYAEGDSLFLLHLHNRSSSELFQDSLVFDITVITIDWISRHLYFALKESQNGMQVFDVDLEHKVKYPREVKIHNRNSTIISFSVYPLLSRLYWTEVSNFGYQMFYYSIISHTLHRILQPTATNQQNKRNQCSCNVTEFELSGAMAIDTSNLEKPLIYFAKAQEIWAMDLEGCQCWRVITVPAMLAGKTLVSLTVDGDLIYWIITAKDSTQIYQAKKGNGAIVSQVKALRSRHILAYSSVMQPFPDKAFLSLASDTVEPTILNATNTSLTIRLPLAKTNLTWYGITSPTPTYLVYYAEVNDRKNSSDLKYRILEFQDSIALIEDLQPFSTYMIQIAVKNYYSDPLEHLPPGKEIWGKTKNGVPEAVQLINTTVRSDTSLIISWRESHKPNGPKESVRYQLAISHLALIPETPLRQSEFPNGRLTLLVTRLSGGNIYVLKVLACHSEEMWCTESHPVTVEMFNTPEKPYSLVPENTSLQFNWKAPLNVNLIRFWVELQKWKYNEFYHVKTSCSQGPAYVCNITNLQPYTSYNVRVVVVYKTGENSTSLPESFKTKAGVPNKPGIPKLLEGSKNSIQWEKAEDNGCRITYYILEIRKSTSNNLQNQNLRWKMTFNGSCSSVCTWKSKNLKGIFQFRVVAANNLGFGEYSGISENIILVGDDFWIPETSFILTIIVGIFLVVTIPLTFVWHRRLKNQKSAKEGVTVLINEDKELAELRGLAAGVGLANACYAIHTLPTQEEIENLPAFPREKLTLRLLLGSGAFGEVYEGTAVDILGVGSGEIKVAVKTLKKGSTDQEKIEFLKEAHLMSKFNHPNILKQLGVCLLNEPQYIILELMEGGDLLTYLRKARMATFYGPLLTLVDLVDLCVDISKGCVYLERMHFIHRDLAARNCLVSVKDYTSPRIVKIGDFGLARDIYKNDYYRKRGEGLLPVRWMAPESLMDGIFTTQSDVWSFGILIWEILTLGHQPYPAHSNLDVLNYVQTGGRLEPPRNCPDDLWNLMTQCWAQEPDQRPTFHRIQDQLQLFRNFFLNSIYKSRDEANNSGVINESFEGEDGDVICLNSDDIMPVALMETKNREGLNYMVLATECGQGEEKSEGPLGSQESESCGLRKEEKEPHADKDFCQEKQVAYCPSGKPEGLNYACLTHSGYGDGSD

## C=CC(=O)Nc1ccc(C(=O)Nc2[nH]nc3c2CN(C(=O)N[C@H](CN(C)C)c2ccccc2)C3(C)C)cc1
[1]; Selectivity number of off-targets 0.0, Selectivity number of targets 233.0, Source Knowledge https://www.sciencedirect.com/science/article/pii/S2451945619300674?via%3Dihub
  % of engagement: -1.8%
[1]
  % of engagement: -1.7%

## CCC(=O)N1CC[C@H](Nc2ncnc3c2CN(c2cnc(OC)c(C(F)(F)F)c2)CC3)C1 [LENIOLISIB]
[2]
  IC50: > 30 µM

## CCN(CC)CCCCNc1ncc2cc(-c3cc(OC)cc(OC)c3)c(NC(=O)NC(C)(C)C)nc2n1
[3]
  % of control: 100%

## Cc1cc(CN)cc(C)c1-c1ncn(C)c1-c1cncn1C
[4]
  dTM: -1.06 K

## CC[C@@H]1[C@H](F)C(=O)N[C@@H]1COc1nccc2cc(C(N)=O)c(OC)cc12 [ZIMLOVISERTIB]
[5]
  % of inhibition: 18.1%

## Cc1cnc(Nc2ccc(F)cc2Cl)nc1-c1c[nH]c(C(=O)N[C@H](CO)c2cccc(Cl)c2)c1
[6]
  % of inhibition: 8%

## Cc1cc([C@@H](C)Nc2ccccc2C(=O)O)c2nc(N3CCOCC3)cc(=O)n2c1 [AZD-6482]
[7]
  % of control: 99%

## Cc1ccc(-c2ccc3c(ccc4sc5c(c43)NC[C@@H](C)NC5=O)n2)cn1
[8]
  % of inhibition: 6%

## CNC(=O)Nc1ccc(-c2nc(N3CC4CCC(C3)O4)c3cnn(C4CCC5(CC4)OCCO5)c3n2)cc1
[9]
  % of control: 48%
[10]
  % of inhibition: 3%
